Test results reported in paper PMC6143625, “A high throughput screen for next-generation leads targeting malaria parasite transmission” (Nature Communications, 2018).

What was measured:
[1] = tested on: P. falciparum stage V male gametocytes (male gamete formation); assay: P. falciparum dual gamete formation assay (Pf DGFA), male readout (exflagellation), 48 h carry-over format; assay type: cell-based, Plasmodium falciparum NF54; conditions: primary screen, 2 uM, 48 h incubation, single replicate
Experimental: (§1) P. falciparum NF54 strain (originally isolated from an imported malaria case in the Netherlands in the 1980s; BEI Resources, cat. no. MRA-1000) asexual and sexual stages culture was performed as previously described. Gametocyte cultures were initiated at 1% asexual ring stage parasitaemia and 4% haematocrit in 40 ml final volume. To induce gametocyte production, complete culture medium (CM) (RPMI 1640 supplemented with 25 mM HEPES, 50 µg ml^−1 hypoxanthine, 2 g l^−1 NaHCO3 and 10% pooled human male type A+ serum) was replaced daily for 14 days without fresh erythrocyte addition. Human serum was obtained from Interstate Blood Bank, A^+ serotype; no aspirin 2 h before drawing and no antimalarials 2 weeks before drawing. On day 14 after culture induction, gametocyte production was assessed by thin smear and Giemsa staining, and exflagellation accurately counted in a haemocytometer. Gametocyte cultures with >0.2% exflagellation (compared to total erythrocyte cell number) were deemed acceptable for use in the Pf DGFA. Note, all human biological samples were sourced ethically and their research use was in accord with the terms of the informed consents under an IRB/EC approved protocol.
(§2) In screening mode, the assay was performed as described in Delves et al.[35] with a mean Z′ factor of 0.56 ± 0.14 (SD) (male) and 0.71 ± 0.17 (SD) (female). Pooled mature gametocyte cultures with the capacity to yield >0.2% exflagellation (of total cells) were diluted in CM to 14 million cells per ml and so that 700,000 cells were dispensed in 50 µl into each well of the warmed 384-well screening plates. Parasites were incubated in the plates with compounds for 48 h in a humidified chamber under 92%N2/5% CO2/3% O2 gas mix before gamete formation was triggered by addition of 10 µl per well ookinete medium (RPMI 1640 supplemented with 25 mM HEPES, 50 µg ml^−1 hypoxanthine, 2 g l^−1 NaHCO3, 100 µM xanthurenic acid) containing 0.5 µg ml^−1 anti-Pfs25 clone 4B7 (BEI Resources, cat. no. MRA-315) conjugated to the fluorophore Cy3 (GE Healthcare), and also by cooling the plate at 4 °C for 4 min and then a further 5 min at 28 °C. Exflagellation was recorded immediately by brightfield microscopy using a Nikon Ti-E widefield microscope at ×4 objective, ×1.5 zoom, recording a 10-frame video time-lapse over 2 s for each well. Afterwards, plates were incubated in the dark at 28 °C for a further 24 h to allow female gametes to maximally express Pfs25 on their surface. Female gamete formation was recorded by single-image fluorescence microscopy using the same microscope and magnification as above. Exflagellation and female gamete formation were quantified by specific algorithms designed with the open-source ICY Image Analysis software.
(§3) Assay performance statistics, such as signal to background ratio, Z′ and robust 3×SD activity cut-off were calculated using templates in ActivityBase XE (IDBS, Guilford, Surrey, UK). Hit population analysis and visualisation were conducted using Spotfire DecisionSite (Spotfire, Inc., Somerville, Massachusetts). The pIC50 (−log IC50) values were obtained using the ActivityBase XE nonlinear regression function in the full curve analysis bundle. In screening mode, the Pf DGFA achieved a mean Z′ factor of 0.56 ± 0.14 (SD) (male) and 0.71 ± 0.17 (SD) (female).

[2] = tested on: P. falciparum stage V female gametocytes (female gamete formation); assay: P. falciparum dual gamete formation assay (Pf DGFA), female readout (Pfs25 expression), 48 h carry-over format; assay type: cell-based, Plasmodium falciparum NF54; conditions: primary screen, 2 uM, 48 h incubation, single replicate
Experimental: as §1
as §2, with “Parasites were incubated in the plates with compounds for 48 h in a humidified chamber under” left out
as §3

Row | SMILES | %Inhibition Male @2uM [1] | %Inhibition Female @2uM [2]
1 | NC(=O)c1ccc(N2CCCCC2)c(NC(=O)c2cc(Br)ccc2F)c1 [DDD01080647] | <30% | 45.72%
2 | CCc1cnc(CN(C(C)=O)C2CCN(CCS(C)(=O)=O)C2)o1 (centres unmarked) [DDD01081064] | 46.67% | <30%
3 | CCOC1CCC2(CCN(C(=O)c3csnn3)CC2)c2ccccc21 (centres unmarked) [DDD01081288] | 95.81% | <30%
4 | CS(=O)(=O)N1Cc2ccnn2CC(C(=O)NCc2cccnc2)C1 (centres unmarked) [DDD01081357] | 43.36% | <30%
5 | COc1ccc2c(c1)C1(CCNCC1)CC2NC1CC1 (centres unmarked) [DDD01081368] | 45.77% | <30%
6 | O=C1CC[C@@H]2[C@@H](CCN2S(=O)(=O)C2CC2)N1CC1CC1 [DDD01081437] | 31.40% | <30%
7 | c1c(CN2CCOCC2)nc2n1CCN(CC1CC1)C2 [DDD01081604] | 36.99% | <30%
8 | CN(C)[C@@H]1CCN(S(C)(=O)=O)[C@H]1Cc1ccccc1 [DDD01081694] | 32.12% | <30%
9 | CCc1cnc(N2CC[C@H]3[C@@H]2CCC(=O)N3c2ccccc2)nc1 [DDD01081766] | 33.06% | <30%
10 | CC(C)n1nc(CN2CCCC2=O)c2c1CN(C(=O)c1ccc[nH]1)C2 [DDD01081769] | <30% | 30.49%
11 | O=C(c1ccoc1)N1CCOC2(COCCN(CC3CC3)C2)C1 (centres unmarked) [DDD01082156] | <30% | 30.05%
12 | CC(C)N(C)Cc1cncc2c1CCN(CC(=O)N(C)C)C2 [DDD01082190] | <30% | 42.20%
13 | CC1c2ncc(Cn3cccn3)n2CCN1c1ncccn1 (centres unmarked) [DDD01082239] | <30% | 34.70%
14 | CCCN1CCC(c2nc3ccc(-c4cccc(OC)c4)cn3n2)CC1 [DDD01082327] | <30% | 35.67%
15 | CCOCC(=O)N1CCc2nc(C)nc(NC(C)C)c2CC1 [DDD01082409] | 45.90% | <30%
16 | O=C(NC1CC1)[C@H]1CC[C@@H]2[C@@H](CCN2CCOCc2ccccc2)O1 [DDD01082763] | 87.75% | <30%
17 | Cn1cncc1C(=O)N1C[C@@H]2CCN(c3cnccn3)C[C@@H]2C1 [DDD01082777] | <30% | 40.85%
18 | O=S(=O)(c1ccccc1)N1CCC2(CCCN2Cc2ccccc2Cl)C1 (centres unmarked) [DDD01083172] | 37.32% | <30%
19 | CS(=O)(=O)NCc1nnc2n1CCN(Cc1cccnc1)C2 [DDD01083181] | 31.87% | <30%
20 | COc1ccc(CN2CC[C@@H](O)[C@@H]2Cc2cnn(C)c2)cc1 [DDD01083182] | 38.13% | <30%
21 | CC1=N[C@@]2(CC[C@@H]3CN(S(=O)(=O)CC(C)C)C[C@@H]32)C(=O)N1CC1CC1 [DDD01083262] | <30% | 94.03%
22 | CN(C)C(=O)N1CCCC2(CCN(c3ccsc3)C2=O)C1 (centres unmarked) [DDD01083808] | <30% | 43.49%
